molecular target: T1, Androgen receptor (Rattus norvegicus, UniProt P15207); experiment: Binding affinity against rat prostate cytosolic Androgen receptor using [3H]mibolerone as radioligand; settings: not given
T1 sequence (P15207 whole entry): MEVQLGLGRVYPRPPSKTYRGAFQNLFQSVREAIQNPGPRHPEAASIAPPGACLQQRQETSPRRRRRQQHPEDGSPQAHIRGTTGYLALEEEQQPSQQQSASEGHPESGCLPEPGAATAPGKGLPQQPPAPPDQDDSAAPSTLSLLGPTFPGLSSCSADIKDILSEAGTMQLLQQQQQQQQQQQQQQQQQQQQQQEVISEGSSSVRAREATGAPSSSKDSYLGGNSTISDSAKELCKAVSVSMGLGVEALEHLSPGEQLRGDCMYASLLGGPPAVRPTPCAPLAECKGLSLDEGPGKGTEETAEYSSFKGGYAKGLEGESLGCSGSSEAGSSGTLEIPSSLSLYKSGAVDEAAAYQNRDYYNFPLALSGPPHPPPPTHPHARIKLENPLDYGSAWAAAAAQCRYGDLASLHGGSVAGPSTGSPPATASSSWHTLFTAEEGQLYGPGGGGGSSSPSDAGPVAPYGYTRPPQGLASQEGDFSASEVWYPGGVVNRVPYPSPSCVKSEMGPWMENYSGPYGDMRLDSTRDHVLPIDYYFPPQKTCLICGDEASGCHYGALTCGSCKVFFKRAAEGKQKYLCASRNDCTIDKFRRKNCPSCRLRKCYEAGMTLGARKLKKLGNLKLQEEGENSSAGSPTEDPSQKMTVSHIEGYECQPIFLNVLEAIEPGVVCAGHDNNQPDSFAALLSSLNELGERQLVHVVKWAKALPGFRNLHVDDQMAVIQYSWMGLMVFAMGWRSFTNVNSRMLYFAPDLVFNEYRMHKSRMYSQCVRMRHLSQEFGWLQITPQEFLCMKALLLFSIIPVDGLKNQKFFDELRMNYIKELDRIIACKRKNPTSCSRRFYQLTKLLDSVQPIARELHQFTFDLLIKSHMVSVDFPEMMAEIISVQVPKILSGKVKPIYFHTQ

First: CN1C(=O)N(c2ccc(C#N)c(C(F)(F)F)c2)C(=O)C1(C)C
Second: CC1(C)C(=O)N(c2ccc(C#N)c(C(F)(F)F)c2)C(=O)N1CCF
The Ki of the first is 3.8-fold lower: 37 nM for the first, 141 nM for the second. The first binds more tightly here.

Going from `CC1(C)C(=O)N(c2ccc(C#N)c(C(F)(F)F)c2)C(=O)N1CCc1ccc(I)cc1` to `CC1(C)C(=O)N(c2ccc(C#N)c(C(F)(F)F)c2)C(=O)N1CCCc1ccc(I)cc1`, the Ki falls from 415 nM to 65 nM (6.4-fold).

First: CC1(C)C(=O)N(c2ccc(C#N)c(C(F)(F)F)c2)C(=O)N1CCCF
Second: CC1(C)C(=O)N(c2ccc(C#N)c(C(F)(F)F)c2)C(=O)N1CCCCO [RU-58841]
The Ki of the first is 12-fold higher: 321 nM for the first, 26 nM for the second.

First: CC1(C)C(=O)N(c2ccc(C#N)c(C(F)(F)F)c2)C(=O)N1CCc1cccc(I)c1
Second: CC1(C)C(=O)N(c2ccc(C#N)c(C(F)(F)F)c2)C(=O)N1CCCc1cccc(I)c1
The Ki of the first is 2.2-fold higher: 809 nM for the first, 360 nM for the second.

`CC1(C)C(=O)N(c2ccc(C#N)c(C(F)(F)F)c2)C(=O)N1Cc1cccc(I)c1` and `CC1(C)C(=O)N(c2ccc(C#N)c(C(F)(F)F)c2)C(=O)N1Cc1ccc(I)cc1` are within 1.5-fold of each other in Ki: 123 nM for the first, 150 nM for the second.

First: CC1(C)C(=O)N(c2ccc(C#N)c(C(F)(F)F)c2)C(=O)N1C/C=C/I
Second: COCCN1C(=O)N(c2ccc(C#N)c(C(F)(F)F)c2)C(=O)C1(C)C
The Ki of the first is 9.2-fold lower: 13 nM for the first, 120 nM for the second.

molecular target: T2, Androgen receptor (Rattus norvegicus) (UniProt P15207); settings: Prostate gland
T2 sequence (whole entry): T1 sequence (P15207 whole entry)
Description: Displacement of [3H]-mibolerone from rat prostate cytosolic Androgen receptor

`CC1(C)C(=O)N(c2ccc(C#N)c(C(F)(F)F)c2)C(=O)N1CCCCO` [RU-58841] showed a Ka of 1.2 nM.

From ChEMBL document CHEMBL1134024, “Synthesis and structure-activity studies of side-chain derivatized arylhydantoins for investigation as androgen receptor radioligands” (Bioorg Med Chem Lett, 2001)
